In assay [1] the target is T1, cyclooxygenase-2 (human osteosarcoma 143 cells) (Homo sapiens, UniProt P35354).
T1 construct: human osteosarcoma 143 cells (which specifically express cyclooxygenase-2); endogenous in cells; host or cells: human osteosarcoma 143 cells
T1 sequence (P35354 18-604): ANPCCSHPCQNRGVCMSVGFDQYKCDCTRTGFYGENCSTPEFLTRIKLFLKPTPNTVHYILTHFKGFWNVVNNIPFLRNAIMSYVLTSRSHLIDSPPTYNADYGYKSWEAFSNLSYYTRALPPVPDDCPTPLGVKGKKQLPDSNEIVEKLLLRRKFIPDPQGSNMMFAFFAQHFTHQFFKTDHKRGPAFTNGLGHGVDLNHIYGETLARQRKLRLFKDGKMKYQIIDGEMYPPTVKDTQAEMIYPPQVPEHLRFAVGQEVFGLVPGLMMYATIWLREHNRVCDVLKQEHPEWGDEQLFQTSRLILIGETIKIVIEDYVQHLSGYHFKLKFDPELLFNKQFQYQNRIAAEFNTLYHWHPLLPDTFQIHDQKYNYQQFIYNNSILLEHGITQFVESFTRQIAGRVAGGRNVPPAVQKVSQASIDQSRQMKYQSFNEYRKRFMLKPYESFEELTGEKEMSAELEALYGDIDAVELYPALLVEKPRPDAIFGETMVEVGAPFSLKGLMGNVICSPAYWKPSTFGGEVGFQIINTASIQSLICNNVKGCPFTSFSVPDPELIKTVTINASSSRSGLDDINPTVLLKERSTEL
The assay can be described thus: Whole cell cyclooxygenase assay, PGE2 synthesis by radioimmunoassay (COX-2). Type of assay: cell-based. The settings on record: read-out: Whole Cells COX-2 % inhib. How it is done:
(§1) Compounds were tested as inhibitors of cyclooxygenase activity in whole cell and microsomal cyclooxygenase assays. Both of these assays measured prostaglandin E2 (PGE2) synthesis in response to arachidonic acid, using a radioimmunoassay. Cells used for whole cell assays, and from which microsomes were prepared for microsomal assays, were human osteosarcoma 143 cells (which specifically express cyclooxygenase-2) and human U-937 cells (which specifically express cyclooxygenase-1). In these assays, 100% activity is defined as the difference between prostaglandin E2 synthesis in the absence and presence-of arachidonate addition.

The target in assay [2] is T2, cyclooxygenase-2 (microsomes of human osteosarcoma 143 cells) (Homo sapiens, UniProt P35354).
T2 construct: from which microsomes were prepared for microsomal assays, were human osteosarcoma 143 cells; endogenous in cells; host or cells: microsomes of human osteosarcoma 143 cells
T2 sequence (P35354 18-604): T1 sequence (P35354 18-604)
Kind of assay: Microsomal cyclooxygenase assay (COX-2). The settings on record: Conc. 100 nM; read-out: Microsomes COX-2 % inhib. Type of assay: biochemical. On the procedure: as §1

Assay [3] addresses T3, cyclooxygenase-1 (microsomes of human U-937 cells) (Homo sapiens, UniProt P23219).
T3 construct: human U-937 cells (which specifically express cyclooxygenase-1); endogenous in cells; host or cells: microsomes of human U-937 cells
The assay can be described thus: Microsomal cyclooxygenase assay (COX-1). Type of assay: biochemical. Particulars: Conc. 100 nM; read-out: Microsomes COX-1 % inhib. On the procedure:
as §1

T3 sequence (P23219 24-599): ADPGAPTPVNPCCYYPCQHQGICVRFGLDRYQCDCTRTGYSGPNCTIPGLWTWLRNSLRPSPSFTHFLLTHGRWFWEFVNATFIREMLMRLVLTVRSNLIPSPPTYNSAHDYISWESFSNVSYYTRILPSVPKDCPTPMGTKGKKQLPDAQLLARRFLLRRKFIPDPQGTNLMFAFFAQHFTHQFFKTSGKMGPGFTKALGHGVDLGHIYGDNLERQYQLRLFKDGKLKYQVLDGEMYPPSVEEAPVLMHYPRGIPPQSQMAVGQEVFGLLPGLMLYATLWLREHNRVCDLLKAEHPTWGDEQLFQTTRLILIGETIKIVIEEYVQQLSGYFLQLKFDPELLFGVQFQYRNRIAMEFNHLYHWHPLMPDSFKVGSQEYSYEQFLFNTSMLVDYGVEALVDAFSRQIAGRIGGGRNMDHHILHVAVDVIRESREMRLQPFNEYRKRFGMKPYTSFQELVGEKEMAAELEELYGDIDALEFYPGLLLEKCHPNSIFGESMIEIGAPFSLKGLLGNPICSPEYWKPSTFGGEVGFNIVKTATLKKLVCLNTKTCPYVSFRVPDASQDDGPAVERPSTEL

In the case of `CS(=O)(=O)c1ccc(C2=C(c3ccc(F)cc3)C(=O)OC2)cc1` [Example 9, 3-(4-Fluorophenyl)-4-(4-(methylsulfonyl)phenyl)-2-(5H)-furanone], the inhibition at 0.1 µM in assay [1] was determined as 83%; in assay [2], 37%; in assay [3], 9%.

Values taken from patent US6486194B2, “Use of inhibitors of cyclooxygenase in the treatment of neurodegenerative diseases” (Merck Frosst Canada, Inc., priority 1993, dated 2002).
